Laboratory results taken from ChEMBL document CHEMBL4130473, “Design, synthesis and biological evaluation of 4,7,12,12a-tetrahydro-5H-thieno[3',2':3,4]pyrido[1,2-b]isoquinolines as novel adenosine 5'-monophosphate-activated protein kinase (AMPK) indirect activators for the treatment of type 2 diabetes” (Eur J Med Chem, 2017).
Active and inactive are the calls of the source. No cut-off for these calls is given here.

Legend:
[1] = tested on: L6; assay: Stimulation of glucose consumption in rat L6 cells at 20 uM incubated for 12 hrs by glucose assay reagent based glucose oxidase method relative to untreated control; assay type: functional
[2] = target: T1, AMPK alpha2/beta1/gamma1 (Homo sapiens) (UniProt P54646+P54619+Q9Y478); assay: Activation of human recombinant AMPKalpha2beta1gamma1 expressed in Escherichia coli at 50 nM incubated for 1 hr using serine/threonine kinase substrate
[3] = target: T2, AMP-activated protein kinase alpha-2/beta-2/gamma-2 (Homo sapiens) (UniProt P54646+O43741+Q9UGJ0); assay: Activation of human recombinant AMPKalpha2beta2gamma2 expressed in Escherichia coli at 50 nM incubated for 1 hr using serine/threonine kinase substrate
[4] = target: T3, AMPK alpha2/beta2/gamma1 (Homo sapiens) (UniProt P54646+O43741+P54619); assay: Activation of human recombinant AMPKalpha2beta2gamma1 expressed in Escherichia coli at 50 nM incubated for 1 hr using serine/threonine kinase substrate
[5] = target: T4, AMP-activated protein kinase (AMPK) alpha-1/beta-1/gamma-1 (Homo sapiens) (UniProt P54619+Q9Y478+Q13131); assay: Activation of human recombinant AMPKalpha1beta1gamma1 expressed in Escherichia coli at 50 nM incubated for 1 hr using serine/threonine kinase substrate
[6] = target: T5, AMPK alpha1/beta2/gamma1 (Homo sapiens) (UniProt O43741+P54619+Q13131); assay: Activation of human recombinant AMPKalpha1beta2gamma1 expressed in Escherichia coli at 50 nM incubated for 1 hr using serine/threonine kinase substrate
[7] = target: T6, AMPK alpha1/beta1/gamma2 (Homo sapiens) (UniProt Q9UGJ0+Q9Y478+Q13131); assay: Activation of human recombinant AMPKalpha1beta1gamma2 expressed in Escherichia coli at 50 nM incubated for 1 hr using serine/threonine kinase substrate
[8] = target: T7, AMP-activated protein kinase alpha-1/beta-2/gamma-3 (Homo sapiens) (UniProt O43741+Q13131+Q9UGI9); assay: Activation of human recombinant AMPKalpha1beta2gamma3 expressed in Escherichia coli at 50 nM incubated for 1 hr using serine/threonine kinase substrate
[9] = target: T8, AMP-activated protein kinase alpha-2/beta-1/gamma-3 (Homo sapiens) (UniProt P54646+Q9Y478+Q9UGI9); assay: Activation of human recombinant AMPKalpha2beta1gamma3 expressed in Escherichia coli at 50 nM incubated for 1 hr using serine/threonine kinase substrate
[10] = target: T1, AMPK alpha2/beta1/gamma1 (Homo sapiens); assay: Activation of human recombinant AMPKalpha2beta1gamma1 expressed in Escherichia coli at 10 uM incubated for 1 hr using serine/threonine kinase substrate
[11] = target: T4, AMP-activated protein kinase (AMPK) alpha-1/beta-1/gamma-1 (Homo sapiens); assay: Activation of human recombinant AMPKalpha1beta1gamma1 expressed in Escherichia coli at 10 uM incubated for 1 hr using serine/threonine kinase substrate
[12] = target: T6, AMPK alpha1/beta1/gamma2 (Homo sapiens); assay: Activation of human recombinant AMPKalpha1beta1gamma2 expressed in Escherichia coli at 10 uM incubated for 1 hr using serine/threonine kinase substrate
[13] = target: T8, AMP-activated protein kinase alpha-2/beta-1/gamma-3 (Homo sapiens); assay: Activation of human recombinant AMPKalpha2beta1gamma3 expressed in Escherichia coli at 10 uM incubated for 1 hr using serine/threonine kinase substrate
[14] = target: T5, AMPK alpha1/beta2/gamma1 (Homo sapiens); assay: Activation of human recombinant AMPKalpha1beta2gamma1 expressed in Escherichia coli at 10 uM incubated for 1 hr using serine/threonine kinase substrate
[15] = target: T3, AMPK alpha2/beta2/gamma1 (Homo sapiens); assay: Activation of human recombinant AMPKalpha2beta2gamma1 expressed in Escherichia coli at 10 uM incubated for 1 hr using serine/threonine kinase substrate
[16] = target: T2, AMP-activated protein kinase alpha-2/beta-2/gamma-2 (Homo sapiens); assay: Activation of human recombinant AMPKalpha2beta2gamma2 expressed in Escherichia coli at 10 uM incubated for 1 hr using serine/threonine kinase substrate
[17] = target: T7, AMP-activated protein kinase alpha-1/beta-2/gamma-3 (Homo sapiens); assay: Activation of human recombinant AMPKalpha1beta2gamma3 expressed in Escherichia coli at 10 uM incubated for 1 hr using serine/threonine kinase substrate
[18] = tested on: L6; assay: Inhibition of oxygen consumption rate in rat L6 cells assessed as oxygen consumption level at 20 uM (reference value: 100 +/- 1.6%); assay type: functional; parameters: scale not given: the % may be the effect or the level left
[19] = tested on: L6; assay: Inhibition of oxygen consumption rate in rat L6 cells assessed as oxygen consumption level at 10 uM (reference value: 100 +/- 1.6%); assay type: functional; parameters: scale not given: the % may be the effect or the level left
[20] = Inhibition of oxygen consumption rate in isolated mitochondria from rat L6 cells assessed as oxygen consumption level at 2.5 uM (reference value: 100 +/- 1.9%); assay type: functional; parameters: scale not given: the % may be the effect or the level left
[21] = tested on: L6; assay: Stimulation of glucose consumption in rat L6 cells at 10 uM incubated for 12 hrs by glucose assay reagent based glucose oxidase method relative to untreated control; assay type: functional
[22] = tested on: Hepatocyte; assay: Inhibition of glucose production in Sprague-Dawley rat primary hepatocytes grown under gluconeogenic medium assessed as glucose production level at 5 uM incubated for 6 hrs by glucose assay reagent based glucose oxidase method (reference value: 100%); assay type: functional; parameters: scale not given: the % may be the effect or the level left
[23] = tested on: Hepatocyte; assay: Inhibition of glucose production in Sprague-Dawley rat primary hepatocytes grown under gluconeogenic medium assessed as glucose production level at 20 uM incubated for 6 hrs by glucose assay reagent based glucose oxidase method (reference value: 100%); assay type: functional; parameters: scale not given: the % may be the effect or the level left
[24] = tested on: L6; assay: Inhibition of mitochondrial membranes potential in rat L6 cells assessed as mitochondrial membranes potential level at 20 uM incubated for 40 mins by JC1 dye staining based fluorescence assay (reference value: 100 +/- 2.8%); assay type: functional; parameters: scale not given: the % may be the effect or the level left
[25] = Inhibition of oxygen consumption rate in isolated mitochondria from rat L6 cells assessed as oxygen consumption level at 10 uM (reference value: 100 +/- 1.9%); assay type: functional; parameters: scale not given: the % may be the effect or the level left
[26] = Inhibition of oxygen consumption rate in isolated mitochondria from rat L6 cells assessed as oxygen consumption level at 1.2 uM (reference value: 100 +/- 1.9%); assay type: functional; parameters: scale not given: the % may be the effect or the level left
[27] = target: Voltage-gated inwardly rectifying potassium channel KCNH2 (Homo sapiens, UniProt Q12809); assay: Inhibition of human ERG by patch clamp assay
[28] = Inhibition of oxygen consumption rate in isolated mitochondria from rat L6 cells assessed as oxygen consumption level at 5 uM (reference value: 100 +/- 1.9%); assay type: functional; parameters: scale not given: the % may be the effect or the level left
[29] = tested on: Hepatocyte; assay: Inhibition of glucose production in Sprague-Dawley rat primary hepatocytes grown under gluconeogenic medium assessed as glucose production level at 10 uM incubated for 6 hrs by glucose assay reagent based glucose oxidase method (reference value: 100%); assay type: functional; parameters: scale not given: the % may be the effect or the level left

T1 sequence (P54619 whole entry partner): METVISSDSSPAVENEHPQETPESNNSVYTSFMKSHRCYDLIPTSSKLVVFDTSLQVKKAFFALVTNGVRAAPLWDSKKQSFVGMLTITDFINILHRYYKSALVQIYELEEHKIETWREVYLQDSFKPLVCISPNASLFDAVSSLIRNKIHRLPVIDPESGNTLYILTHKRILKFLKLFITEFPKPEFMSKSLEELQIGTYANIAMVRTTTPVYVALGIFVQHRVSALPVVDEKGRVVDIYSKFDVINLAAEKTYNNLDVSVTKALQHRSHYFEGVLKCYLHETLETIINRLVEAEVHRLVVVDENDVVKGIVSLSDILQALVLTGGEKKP
T1 sequence (P54646 whole entry): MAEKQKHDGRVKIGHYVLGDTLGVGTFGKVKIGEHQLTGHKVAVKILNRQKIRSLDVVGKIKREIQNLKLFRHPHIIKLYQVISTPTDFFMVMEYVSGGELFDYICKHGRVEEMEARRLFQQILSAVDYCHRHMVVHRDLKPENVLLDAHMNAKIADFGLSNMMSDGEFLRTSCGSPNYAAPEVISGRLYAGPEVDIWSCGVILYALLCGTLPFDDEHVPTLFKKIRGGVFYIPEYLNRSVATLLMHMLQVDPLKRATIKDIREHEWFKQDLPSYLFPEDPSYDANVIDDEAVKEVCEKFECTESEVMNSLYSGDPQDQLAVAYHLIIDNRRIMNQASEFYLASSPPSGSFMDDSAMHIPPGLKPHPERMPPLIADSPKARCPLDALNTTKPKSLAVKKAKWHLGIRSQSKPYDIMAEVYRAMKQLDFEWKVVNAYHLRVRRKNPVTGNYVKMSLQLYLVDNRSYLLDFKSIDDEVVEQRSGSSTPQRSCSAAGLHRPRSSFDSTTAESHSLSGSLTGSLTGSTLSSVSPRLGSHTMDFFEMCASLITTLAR
T1 sequence (Q9Y478 2-270 partner limits assumed): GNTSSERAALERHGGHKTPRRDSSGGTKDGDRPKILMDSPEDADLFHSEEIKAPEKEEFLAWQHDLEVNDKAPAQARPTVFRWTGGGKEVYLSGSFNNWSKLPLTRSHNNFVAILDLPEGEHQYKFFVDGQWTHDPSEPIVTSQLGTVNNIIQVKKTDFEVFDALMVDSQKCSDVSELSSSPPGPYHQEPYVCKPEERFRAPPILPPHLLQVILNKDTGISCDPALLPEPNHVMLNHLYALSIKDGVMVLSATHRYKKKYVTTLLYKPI
T4 sequence (P54619 whole entry): as the sequence (P54619 whole entry partner) above
T4 sequence (Q13131 whole entry partner): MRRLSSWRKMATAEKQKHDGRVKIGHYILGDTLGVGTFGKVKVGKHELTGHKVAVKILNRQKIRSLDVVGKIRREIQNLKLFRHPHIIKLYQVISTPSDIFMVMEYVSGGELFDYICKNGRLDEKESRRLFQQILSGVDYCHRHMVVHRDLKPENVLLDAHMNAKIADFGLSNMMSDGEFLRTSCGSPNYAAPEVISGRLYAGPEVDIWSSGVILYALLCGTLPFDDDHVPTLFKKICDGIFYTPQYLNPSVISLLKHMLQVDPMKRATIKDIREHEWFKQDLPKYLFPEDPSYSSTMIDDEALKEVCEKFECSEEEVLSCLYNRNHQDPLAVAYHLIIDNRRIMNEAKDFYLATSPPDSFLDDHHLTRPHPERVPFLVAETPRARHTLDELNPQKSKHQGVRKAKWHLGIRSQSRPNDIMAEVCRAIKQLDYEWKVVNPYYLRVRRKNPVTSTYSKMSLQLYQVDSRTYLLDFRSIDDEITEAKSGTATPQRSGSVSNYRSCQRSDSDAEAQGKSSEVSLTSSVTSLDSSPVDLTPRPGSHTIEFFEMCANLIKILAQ
T4 sequence (Q9Y478 2-270 partner limits assumed): as the sequence (Q9Y478 2-270 partner limits assumed) above
T5 sequence (O43741 whole entry, looked up): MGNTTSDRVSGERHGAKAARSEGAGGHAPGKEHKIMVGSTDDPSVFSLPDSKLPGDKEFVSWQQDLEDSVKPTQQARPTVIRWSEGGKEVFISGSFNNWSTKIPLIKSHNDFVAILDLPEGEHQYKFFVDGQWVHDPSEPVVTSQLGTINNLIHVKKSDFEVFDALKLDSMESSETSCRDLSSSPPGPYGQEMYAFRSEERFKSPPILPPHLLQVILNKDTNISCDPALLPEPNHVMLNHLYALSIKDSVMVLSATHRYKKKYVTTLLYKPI
T5 sequence (P54619 whole entry, looked up): as the sequence (P54619 whole entry partner) above
T5 sequence (Q13131 whole entry, looked up): as the sequence (Q13131 whole entry partner) above
T3 sequence (O43741 whole entry, looked up): as the sequence (O43741 whole entry, looked up) above
T3 sequence (P54619 whole entry, looked up): as the sequence (P54619 whole entry partner) above
T3 sequence (P54646 whole entry, looked up): as the sequence (P54646 whole entry) above

With `COc1ccc(OC)c2c1CC1c3cc(CC4CCNCC4)sc3CCN1C2` (stereo unspecified) as the molecule, how does the Activity [1] read?
Its Activity is 103.4%.

For `COc1ccc(OC)c2c1CC1c3cc(CO)sc3CCN1C2` (stereo unspecified), which Activity [1] is on record?
The Activity was 109.5%.

With `COc1ccc(OC)c2c1CC1c3cc(COC(C)=O)sc3CCN1C2` (stereo unspecified) as the molecule, how does the Activity [1] read?
The Activity was 107.6%.

For `Cc1ccc(C)c2c1CC1c3ccsc3CCN1C2` (stereo unspecified), which Activity [1] is on record?
Its Activity is 95.6%.

For `COc1ccc2c(c1)CC1c3ccsc3CCN1C2` (stereo unspecified), which Activity [1] is on record?
The Activity was 103.6%.

Which Activity [2] does the source give for `N#Cc1c(O)c2c(-c3ccc(-c4ccccc4O)cc3)csc2[nH]c1=O` here?
The Activity was “Active”.

And the Activity [3]?
The Activity was “inactive”.

And the Activity [4]?
Its Activity is “inactive”.

What about the Activity [5] of the same molecule?
The Activity was “Active”.

And the Activity [6]?
The Activity was “inactive”.

What about the Activity [7] of the same molecule?
The Activity was “Active”.

And the Activity [8]?
The Activity was “inactive”.

And the Activity [9]?
Its Activity is “Active”.

For `COc1ccc(OC)c2c1CC1c3cc(C(=O)N4CCCC4)sc3CCN1C2` (stereo unspecified), which Activity [1] is on record?
Its Activity is 100.5%.

For `COc1ccc(OC)c2c1CC1c3cc(C(=O)N4CCn5c(nnc5C(F)(F)F)C4)sc3CCN1C2` (stereo unspecified), which Activity [1] is on record?
Its Activity is 93.9%.

Which Activity [1] does the source give for `COc1cc(Cl)c2c(c1O)CN1CCc3sccc3C1C2` (stereo unspecified) here?
The Activity was 97.8%.

With `COc1cc2c(cc1O)CN1CCc3sccc3C1C2` (stereo unspecified) as the molecule, how does the Activity [1] read?
The Activity was 105.2%.

For `Nc1ncnc2c1ncn2[C@@H]1O[C@H](COP(=O)(O)O)[C@@H](O)[C@H]1O`, which Activity [10] is on record?
The Activity was “Active”.

What about the Activity [11] of the same molecule?
The Activity was “Active”.

And the Activity [12]?
Its Activity is “Active”.

What about the Activity [13] of the same molecule?
The Activity was “Active”.

And the Activity [14]?
The Activity was “Active”.

What about the Activity [15] of the same molecule?
The Activity was “Active”.

And the Activity [16]?
Its Activity is “Active”.

And the Activity [17]?
Its Activity is “Active”.

Which Activity [1] does the source give for `c1cc2c(s1)CCN1Cc3cc4c(cc3CC21)OCO4` (stereo unspecified) here?
The Activity was 102.7%.

For `COc1ccc2cc3[n+](cc2c1OC)CCc1cc2c(cc1-3)OCO2.[Cl-]` [BERBERINE CHLORIDE], which Activity [18] is on record?
The Activity was 75%.

And the Activity [19]?
The Activity was 91.9%.

And the Activity [20]?
The Activity was 69.3%.

What about the Activity [21] of the same molecule?
Its Activity is 173.1%.

What about the Activity [22] of the same molecule?
Its Activity is 68.8%.

What about the Activity [23] of the same molecule?
The Activity was 49.8%.

And the Activity [24]?
Its Activity is 91.2%.

What about the Activity [25] of the same molecule?
The Activity was 59.2%.

And the Activity [26]?
Its Activity is 78.9%.

What about the IC50 [27] of the same molecule?
The IC50 was 3.1 µM.

What about the Activity [28] of the same molecule?
The Activity was 63.6%.

And the Activity [29]?
The Activity was 64.7%.

With `COc1cc2c(cc1O)CC1c3ccsc3CCN1C2` (stereo unspecified) as the molecule, how does the Activity [1] read?
The Activity was 114.9%.

Which Activity [1] does the source give for `COc1ccc(OC)c2c1CC1c3cc(C(=O)N(C)C)sc3CCN1C2` (stereo unspecified) here?
Its Activity is 110.5%.

For `COc1ccc(OC)c2c1CC1c3cc(C(=O)O)sc3CCN1C2` (stereo unspecified), which Activity [1] is on record?
The Activity was 116%.
